System: HuH-7 replicon cells 5–15 and 9–13 (HCV replication)
Experiment: Inhibition of viral replication in HuH-7 replicon cells (HCV RNA / GAPDH RNA by multiplex RT-PCR)
Assay type: cell-based
Details: Hepatitis C virus, 72 h; inhibiting 50% of replication; HuH-7 replicon cells, 3 days; read-out: IC50
Protocol: Compounds were evaluated for inhibition of viral replication according to published procedures (Bartenschlager, R., et. al., Science, 1999, 285, 110) with modifications as follows.
HuH-7 replicon cells 5–15 and 9–13 were cultured in Dulbecco's minimal essential medium (DMEM) containing high glucose and supplemented with 10% fetal bovine serum (FBS), L-glutamine (2 mM), non-essential amino acids (1×), Penicillin (100 IU/mL)/Streptomycin (100 μg/mL) and G418 (Geneticin, 750 μg/mL). Unless otherwise specified, all media components were obtained from Invitrogen. Replicon cell line stocks were maintained as sub-confluent monolayers by passaging every Monday (1:6 split) and Thursday (1:10 split) and incubated at 37° C. with 5% CO2. Tissue culture plates (96-well white clear bottom plates, Corning #3610) were seeded at 7×10^3 cells/well and incubated for 24 hours prior to addition of the compounds.
Compounds in dry powder form were diluted in DMSO (30 mM stock). Serial dilutions of each Compound in DMSO (10 mM–0.1 mM) were performed in a 96-well polypropylene plate using a microtiter format. Culture media (200 μl) was added to the corresponding wells of a sterile 96-well round bottom plate. Diluted compound (2 μl) was added to the corresponding wells of the medial plate (final compound concentrations: 100 μM–1 μM). Culture media was removed from the corresponding wells of the 96-well plate containing the replicon cells and 150 μl diluted compound added. Media containing 1% DMSO and a serially diluted IFN were included on each plate. The cultures were incubated at 37° C. with 5% CO2 for 3 days. Cultures were observed visually for cytotoxicity or compound precipitation prior to RNA extraction described below.
Total cellular RNA was extracted by spin column technology (RNeasy 96, Qiagen) using the vacuum methodology according to the manufacturer's protocol. In brief, culture media was removed and 100 μl RLT lysis buffer containing 0.14M β-mercaptoethanol (β-ME) was added to each well. The plate was kept flat on the laboratory bench and shaken vigorously to lyse the cells. An equal volume of 70% ETOH was mixed with the lysate and added to the corresponding columns of the RNeasy 96-well plate. Vacuum was applied to draw the lysate through the filters. After ventilating the plate, buffer RW1 (1 mL) was drawn through each column. The waste tray was emptied and the filters washed twice with buffer RPE (1 mL/wash). After ventilating the tray, the RNeasy plate was removed and the bottom of the plate struck several times on a stack of paper towels to remove excess wash buffer. The waste tray was removed from the vacuum apparatus and the RNeasy 96-well plate dried by applying vacuum for 10 minutes. Total cellular RNA was eluted from the columns with two washes of 60 μl RNase-free water.
Relative quantitative multiplex RT-PCR was performed using TaqMan (TM) EZ RT Core Reagent kit (Perkin Elmer) according to the manufacturer's protocol (PE Applied Biosystems User Bulletin #2). Primer 061 (NT 61–82) and 139 (NT 139–158) amplifying a short region in the 5′ untranslated region of the HCV genome were utilized at 300 nM final concentrations. Probe #3 (NT 97–119) labeled with FAM reporter dye was utilized at 200 nM final concentration. Pre-developed human GAPDH primers and probe labeled with VIC reporter dye were obtained from PE Applied Biosystems (# 4310884E) and used according to the manufacturer's protocol. TM RT-PCR master mix was prepared containing the above primers/probe for both target RNA. Total cellular RNA (2 μl) was added to the reaction tubes of a 96-well optical plate that corresponded to the wells of the replicon culture plate. The final volume of each reaction was 50 μl. A standard curve was prepared from ten-fold serial dilutions of total cellular RNA extracated from 10^6 replicon cells and eluted in 30 μl RNase-free water. […]

`O=C(Cc1c(F)ccc(F)c1F)N/N=C/c1ccccc1OS(=O)(=O)c1ccc(C(F)(F)F)cc1` [Compound 27, 2-((E)-{2-[2-(2,3,6-trifluorophenyl)acetyl]hydrazono}methyl)-phenyl 4-(trifluoromethyl)benzenesulfonate] and `O=C(Cc1c(F)cccc1F)N/N=C/c1ccccc1OS(=O)(=O)c1ccc(C(F)(F)F)cc1` [Compound 28, 2-((E)-{2-[2-(2,6-difluorophenyl)acetyl]hydrazono}methyl)-phenyl 4-(trifluoromethyl)benzenesulfonate] cannot be ordered by IC50: < 5 µM for the first, < 5 µM for the second.

First: O=C(Cc1ccccn1)N/N=C/c1ccccc1OS(=O)(=O)c1ccc(C(F)(F)F)cc1 [Compound 29, 2-{(E)-[2-(2-pyridin-2-ylacetyl)hydrazono]methyl}phenyl 4-(trifluoromethyl)benzenesulfonate]
Second: COc1ccccc1CC(=O)N/N=C/c1ccccc1OS(=O)(=O)c1ccc(C(F)(F)F)cc1 [Compound 36, 2-((E)-{2-[2-(2-methoxyphenyl)acetyl]hydrazono}methyl)-phenyl 4-(trifluoromethyl)benzenesulfonate]
The IC50 of the first is lower: < 5 µM for the first, 5 to 50 µM for the second. The first is the more potent here.

`O=C(CCc1cccnc1)N/N=C/c1ccccc1OS(=O)(=O)c1ccc(C(F)(F)F)cc1` [Compound 30, 2-{(E)-[2-(3-pyridin-3-ylpropanoyl)hydrazono]methyl}phenyl 4-(trifluoromethyl)benzenesulfonate] and `O=C(Cc1ccc(Cl)c(Cl)c1)N/N=C/c1ccccc1OS(=O)(=O)c1ccc(C(F)(F)F)cc1` [Compound 38, 2-((E)-{2-[2-(3,4-dichlorophenyl)acetyl]hydrazono}methyl)-phenyl 4-(trifluoromethyl)benzenesulfonate] cannot be ordered by IC50: < 5 µM for the first, < 5 µM for the second.

`O=C(Cc1cc(F)ccc1F)N/N=C/c1ccccc1OS(=O)(=O)c1ccc(C(F)(F)F)cc1` [Compound 31, 2-((E)-{2-[2-(2,5-difluorophenyl)acetyl]hydrazono}methyl)-phenyl 4-(trifluoromethyl)benzenesulfonate] and `COc1ccc(OC)c(CC(=O)N/N=C/c2ccccc2OS(=O)(=O)c2ccc(C(F)(F)F)cc2)c1` [Compound 37, 2-((E)-{2-[2-(2,5-dimethoxyphenyl)acetyl]hydrazono}methyl)-phenyl 4-(trifluoromethyl)benzenesulfonate] cannot be ordered by IC50: < 5 µM for the first, < 5 µM for the second.

`O=C(Cc1cc(C(F)(F)F)ccc1C(F)(F)F)N/N=C/c1ccccc1OS(=O)(=O)c1ccc(C(F)(F)F)cc1` [Compound 32, 2-[(E)-(2-{2-[2,5-bis(trifluoromethyl)phenyl]acetyl}hydrazono)-methyl]phenyl 4-(trifluoromethyl)benzenesulfonate] and `O=C(Cc1cc(C(F)(F)F)cc(C(F)(F)F)c1)N/N=C/c1ccccc1OS(=O)(=O)c1ccc(C(F)(F)F)cc1` [Compound 39, 2-[(E)-(2-{2-[3,5-bis(trifluoromethyl)phenyl]acetyl}hydrazono)-methyl]phenyl 4-(trifluoromethyl)benzenesulfonate] cannot be ordered by IC50: < 5 µM for the first, < 5 µM for the second.

`O=C(Cc1c(F)cccc1C(F)(F)F)N/N=C/c1ccccc1OS(=O)(=O)c1ccc(C(F)(F)F)cc1` [Compound 33, 2-[(E)-(2-{2-[2-fluoro-6-(trifluoromethyl)phenyl]acetyl}hydrazono)-methyl]phenyl 4-(trifluoromethyl)benzenesulfonate] and `O=C(Cc1cccc(C(F)(F)F)c1)N/N=C/c1ccccc1OS(=O)(=O)c1ccc(C(F)(F)F)cc1` [Compound 35, 2-[(E)-(2-{2-[3-(trifluoromethyl)phenyl]acetyl}hydrazono)-methyl]phenyl 4-(trifluoromethyl)benzenesulfonate] cannot be ordered by IC50: < 5 µM for the first, < 5 µM for the second.

For `O=C(Cc1ccc(C(F)(F)F)cc1)N/N=C/c1ccccc1OS(=O)(=O)c1ccc(C(F)(F)F)cc1` [Compound 34, 2-[(E)-(2-{2-[4-(trifluoromethyl)phenyl]acetyl}hydrazono)-methyl]phenyl 4-(trifluoromethyl)benzenesulfonate], the IC50 was < 5 µM.

Source: patent publication US7026339B2, “Inhibitors of HCV NS5B polymerase” (priority 2003, dated 2006)
